Data set [1] addresses DNA (cytosine-5)-methyltransferase 1 (Homo sapiens, UniProt P26358). Briefly: Inhibition of human DNMT1 using polydeoxyinosine polydeoxycytosine DNA as substrate after 15 mins in presence of SAM by TR-FRET assay.
Data set [2] in a line: AUC (0 to 24 hrs) in RARG2-/-gammac-/- Balb/c mouse at 5 mg/kg, ip administered as single dose by LC-MS/MS analysis. In kind it is ADME, organism-based. Details: time < 24 hr, dose 5 mg/kg, route intraperitoneal. As to conditions: in vivo.
Data set [3] in a line: Growth inhibition of human LAL-CUN-2 cells after 48 hrs by MTS assay. In kind it is functional.
Data set [4] can be described thus: Metabolic stability in human liver microsomes assessed as parent compound remaining at 1 uM preincubated for 10 mins followed by NADP addition after 20 mins by LC-MS/MS analysis. It is filed as ADME, microsome. On the technique in general: Liver microsomes are vesicles of endoplasmic reticulum, rich in cytochrome P450 enzymes.
Data set [5] is described as follows: Half life in human liver microsomes at 1 uM preincubated for 10 mins followed by NADP addition after 20 mins by LC-MS/MS analysis. In kind it is ADME, microsome.
Data set [6] in a line: Metabolic stability in mouse liver microsomes assessed as parent compound remaining at 1 uM preincubated for 10 mins followed by NADP addition after 20 mins by LC-MS/MS analysis. As to conditions: read-out: Stability. In kind it is ADME, microsome.
A short description of data set [7]: Half life in mouse liver microsomes at 1 uM preincubated for 10 mins followed by NADP addition after 20 mins by LC-MS/MS analysis. In kind it is ADME, microsome.
The nature of data set [8]: (§1) AUC (0 to 24 hrs) in RARG2-/-gammac-/- Balb/c mouse at […], iv administered as single dose by LC-MS/MS analysis. As to conditions: in vivo. In kind it is ADME, organism-based. Details: dose 1.9 mg/kg, time < 24 hr, route intravenous.
Data set [9] is described as follows: Half life in RARG2-/-gammac-/- Balb/c mouse at […], iv administered as single dose by LC-MS/MS analysis. In kind it is ADME, organism-based. Conditions: in vivo.
A short description of data set [10]: Clearance in RARG2-/-gammac-/- Balb/c mouse at […], iv administered as single dose by LC-MS/MS analysis. In kind it is ADME, organism-based. Conditions: in vivo.
Data set [11] is described as follows: Volume of distribution at steady state in RARG2-/-gammac-/- Balb/c mouse at […], iv administered as single dose by LC-MS/MS analysis. As to conditions: in vivo, read-out: Vdss. It is filed as ADME, organism-based.
Data set [12] deals with T1, Histone-lysine N-methyltransferase EHMT2 (Homo sapiens, UniProt Q96KQ7).
T1 sequence (Q96KQ7 whole entry): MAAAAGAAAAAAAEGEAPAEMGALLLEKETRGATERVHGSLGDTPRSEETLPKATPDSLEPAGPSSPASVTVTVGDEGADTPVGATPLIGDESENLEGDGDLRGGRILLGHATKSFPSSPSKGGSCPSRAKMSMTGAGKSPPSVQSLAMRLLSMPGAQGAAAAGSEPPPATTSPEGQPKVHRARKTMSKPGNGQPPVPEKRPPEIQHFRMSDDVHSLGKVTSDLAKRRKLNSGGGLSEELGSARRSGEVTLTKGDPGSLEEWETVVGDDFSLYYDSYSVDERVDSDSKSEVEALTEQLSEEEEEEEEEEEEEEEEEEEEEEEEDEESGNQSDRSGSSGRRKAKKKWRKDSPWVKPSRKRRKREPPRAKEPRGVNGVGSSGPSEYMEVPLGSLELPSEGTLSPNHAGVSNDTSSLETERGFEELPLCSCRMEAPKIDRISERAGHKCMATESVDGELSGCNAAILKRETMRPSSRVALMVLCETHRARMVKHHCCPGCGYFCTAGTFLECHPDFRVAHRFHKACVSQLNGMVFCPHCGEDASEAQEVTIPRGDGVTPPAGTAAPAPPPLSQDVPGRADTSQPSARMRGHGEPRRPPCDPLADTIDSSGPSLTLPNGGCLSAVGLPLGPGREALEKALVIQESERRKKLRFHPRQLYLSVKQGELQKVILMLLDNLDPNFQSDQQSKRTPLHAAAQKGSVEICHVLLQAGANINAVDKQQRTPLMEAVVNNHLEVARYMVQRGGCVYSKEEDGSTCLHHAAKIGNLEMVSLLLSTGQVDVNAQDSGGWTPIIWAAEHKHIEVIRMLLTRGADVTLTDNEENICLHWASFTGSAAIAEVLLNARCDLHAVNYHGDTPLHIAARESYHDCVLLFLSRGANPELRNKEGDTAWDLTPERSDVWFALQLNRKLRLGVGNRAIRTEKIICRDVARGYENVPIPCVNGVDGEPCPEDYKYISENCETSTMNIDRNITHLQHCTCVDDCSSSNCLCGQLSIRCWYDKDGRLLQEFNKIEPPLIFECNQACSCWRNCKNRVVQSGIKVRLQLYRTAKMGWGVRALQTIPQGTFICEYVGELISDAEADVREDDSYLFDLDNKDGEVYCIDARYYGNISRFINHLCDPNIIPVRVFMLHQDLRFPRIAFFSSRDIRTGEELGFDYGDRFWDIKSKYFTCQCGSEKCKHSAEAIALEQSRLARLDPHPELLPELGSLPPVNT
Nature of the data set: Inhibition of human G9a using biotinylated-H3K9 peptide as substrate after 1 hr in presence of SAM by TR-FRET assay. A general note: TR-FRET usually uses a lanthanide donor and a delayed reading to cut background.

Data set [13] concerns the target T1, Histone-lysine N-methyltransferase EHMT2. Nature of the data set: Inhibition of G9a (unknown origin).
Data set [14] concerns MV4-11. Nature of the data set: Antitumor activity against human MV4-11 cells xenografted in SCID-beige mouse assessed as tumor growth inhibition at 30 mg/kg/day via osmotic pump for 2 weeks relative to control. It is filed as functional. As to conditions: MV4-11, 336 h, read-out: TGI. For orientation: In xenograft studies the graft and the host belong to different species.

Data set [15] has as its system MV4-11. Nature of the data set: Growth inhibition of human MV4-11 cells after 48 hrs by MTS assay. It is filed as functional. Conditions: MV4-11, 48 h.
Another data set has as its system THLE-2. Nature of the data set: Growth inhibition of human THLE2 cells after 72 hrs by MTS assay. In kind it is cell-based. Conditions: thle-2, 72 h.
Data set [16] in a line: as §1. On the set-up: time < 24 hr, dose 2.5 mg/kg, route intravenous. As to conditions: in vivo. It is filed as ADME, organism-based.
The subject of data set [17] is MV4-11. Briefly: Antitumor activity against human MV4-11 cells xenografted in RARG2-/-gammac-/- Balb/c mouse assessed as tumor growth inhibition at […], iv for 21 consecutive days starting from day 1 post tumor inoculation measured on day 23 relative to control. It is filed as functional. As to conditions: MV4-11, iv, read-out: TGI.

DNA (cytosine-5)-methyltransferase 1, sequence (P26358 whole entry): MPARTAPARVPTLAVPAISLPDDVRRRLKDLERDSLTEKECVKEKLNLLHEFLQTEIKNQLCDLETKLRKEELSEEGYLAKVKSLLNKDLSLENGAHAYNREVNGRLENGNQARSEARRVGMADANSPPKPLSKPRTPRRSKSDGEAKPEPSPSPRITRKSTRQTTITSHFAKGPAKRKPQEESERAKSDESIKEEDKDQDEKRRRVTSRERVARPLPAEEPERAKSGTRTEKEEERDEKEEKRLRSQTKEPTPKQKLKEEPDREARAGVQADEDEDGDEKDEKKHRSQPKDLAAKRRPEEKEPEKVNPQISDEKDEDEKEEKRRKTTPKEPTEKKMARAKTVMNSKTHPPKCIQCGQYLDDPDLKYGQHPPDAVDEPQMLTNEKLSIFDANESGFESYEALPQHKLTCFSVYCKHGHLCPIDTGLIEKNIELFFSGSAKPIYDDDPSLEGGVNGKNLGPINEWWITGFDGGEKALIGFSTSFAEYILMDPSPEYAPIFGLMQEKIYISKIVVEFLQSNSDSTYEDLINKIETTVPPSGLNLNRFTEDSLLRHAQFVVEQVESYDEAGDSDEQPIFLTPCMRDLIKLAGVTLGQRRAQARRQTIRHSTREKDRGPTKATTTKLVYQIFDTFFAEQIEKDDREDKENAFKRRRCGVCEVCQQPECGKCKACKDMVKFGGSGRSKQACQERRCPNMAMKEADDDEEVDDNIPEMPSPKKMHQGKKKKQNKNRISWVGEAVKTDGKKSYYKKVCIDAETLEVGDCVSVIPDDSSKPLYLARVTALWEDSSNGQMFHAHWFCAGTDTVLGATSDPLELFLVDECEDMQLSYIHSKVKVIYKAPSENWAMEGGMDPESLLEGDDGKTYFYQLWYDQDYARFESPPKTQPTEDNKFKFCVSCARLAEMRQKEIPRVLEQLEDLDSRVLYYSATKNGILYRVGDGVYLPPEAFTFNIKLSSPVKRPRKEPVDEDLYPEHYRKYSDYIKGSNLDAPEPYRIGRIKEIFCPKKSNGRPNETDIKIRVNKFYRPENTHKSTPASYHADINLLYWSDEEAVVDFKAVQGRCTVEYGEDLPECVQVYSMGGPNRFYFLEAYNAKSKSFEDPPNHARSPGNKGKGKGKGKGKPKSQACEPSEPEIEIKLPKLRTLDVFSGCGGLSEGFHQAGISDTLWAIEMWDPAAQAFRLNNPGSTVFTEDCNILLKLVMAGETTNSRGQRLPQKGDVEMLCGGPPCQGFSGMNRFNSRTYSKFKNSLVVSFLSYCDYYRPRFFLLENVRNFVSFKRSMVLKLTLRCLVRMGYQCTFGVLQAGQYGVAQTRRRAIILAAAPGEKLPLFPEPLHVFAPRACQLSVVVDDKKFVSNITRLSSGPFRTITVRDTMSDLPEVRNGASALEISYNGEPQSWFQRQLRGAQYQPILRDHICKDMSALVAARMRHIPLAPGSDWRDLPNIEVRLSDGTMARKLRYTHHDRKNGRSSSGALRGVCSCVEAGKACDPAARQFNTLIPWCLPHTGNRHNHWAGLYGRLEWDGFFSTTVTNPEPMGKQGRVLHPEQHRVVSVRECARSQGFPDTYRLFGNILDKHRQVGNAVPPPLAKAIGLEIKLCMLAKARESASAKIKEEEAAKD

Take `COc1cc2c(NC3CCN(C(C)C)CC3)nc(N3CCC(F)(F)CC3)nc2cc1OCCCN1CCCC1`: the IC50 in data set [1] was above 50000 nM. In [2], this molecule registered an AUC(0-t) at 24 h of 2.31 µM·h.
In turn, `CCc1ccc(-c2cc(NC3CCN(C)CC3)c3cc(OC)c(OCCCN4CCCC4)cc3n2)o1` registered a GI50 in data set [3] of 577 nM. Further, the Stability in [4] (microsomes, 20 min, 1 µM) is on record as 67.1%. In [5] (microsomes, 20 min, 1 µM), this molecule displayed a t1/2 of 1.6 h. Moreover, the remaining at 20 min, 1 µM in data set [6] turned out to be 16.9%. The half-life at 1 µM in data set [7] is 0.2 h. In data set [8], this molecule had an AUC(0-t) at 24 h of 0.505 µM·h. The molecule further had a half-life in [9] of 13.2 h. The same molecule had a clearance in data set [10] of 98.3 mL/min/kg. In [11], the Vd was found to be 88.5 L/kg.
With `Cc1cc(Nc2ccc(NC(=O)c3ccc(Nc4ccnc5ccccc45)cc3)cc2)nc(N)n1`, the IC50 is above 10000 nM in data set [12] and 59000 nM in data set [13].
Regarding `COc1cc2c(cc1OCCCN1CCCC1)N=C(N)C21CCC1`, the inhibition in vivo at 30 mg/kg/day with MV4-11 [14] turned out to be 45%.
With `COc1cc2c(NC3CCN(C)CC3)cc(-c3ccc(C)o3)nc2cc1OCCCN1CCCC1`, the GI50 in [3] came to 664 nM; in the data set with MV4-11 [15], 269 nM. The LC50 in the data set on THLE-2 worked out at 1780 nM. Moreover, the remaining at 20 min, 1 µM in data set [4] (liver microsomes, read-out: Stability) came out at 99.7%; in [6] it was 70.9%. Further, the half-life at 1 µM in [5] (liver microsomes) is above 2.4 h; in data set [7], 0.6 h. In data set [16], the AUC(0-t) at 24 h is 1.49 µM·h. Also, in the data set on MV4-11 [17], the inhibition in vivo at […] stood at 70%.

The term IC50 denotes the concentration that gives 50% inhibition. Broadly, the AUC(0-t) is the area under the concentration-time curve up to a stated or last time point. A low value points to low exposure. As a reminder, the GI50 is the concentration that inhibits growth by half. As usually defined, the half-life is the time in which the quantity being followed falls by half. Lower therefore signals rapid decline. Usually clearance stands for the rate of elimination divided by the concentration. Higher therefore signals efficient removal. A word on the LC50: it is the concentration that kills 50% of the test population. Higher therefore signals a less lethal substance.

These data come from ChEMBL document CHEMBL4130634, “Discovery of Reversible DNA Methyltransferase and Lysine Methyltransferase G9a Inhibitors with Antitumoral in Vivo Efficacy” (J Med Chem, 2018).
